Assay results as given in ChEMBL document CHEMBL4334550, “Toward Orally Absorbed Prodrugs of the Antibiotic Aztreonam. Design of Novel Prodrugs of Sulfate Containing Drugs. Part 2” (ACS Med Chem Lett, 2020).

Experiments:
[1] = target: T1, Liver carboxylesterase 1 (Homo sapiens, UniProt P23141); experiment: Prodrug conversion assessed as CES1 (unknown origin) mediated aztreonam release in 2.5% acetonitrile in 0.05M citrate buffer at 0.5 mg/ml at pH 4.7 at 37degC after 2 mins in presence of 150 units/ml of CES1 enzyme by HPLC analysis; type: ADME; conditions: pH 4.7, 2 min
T1 sequence (P23141 whole entry): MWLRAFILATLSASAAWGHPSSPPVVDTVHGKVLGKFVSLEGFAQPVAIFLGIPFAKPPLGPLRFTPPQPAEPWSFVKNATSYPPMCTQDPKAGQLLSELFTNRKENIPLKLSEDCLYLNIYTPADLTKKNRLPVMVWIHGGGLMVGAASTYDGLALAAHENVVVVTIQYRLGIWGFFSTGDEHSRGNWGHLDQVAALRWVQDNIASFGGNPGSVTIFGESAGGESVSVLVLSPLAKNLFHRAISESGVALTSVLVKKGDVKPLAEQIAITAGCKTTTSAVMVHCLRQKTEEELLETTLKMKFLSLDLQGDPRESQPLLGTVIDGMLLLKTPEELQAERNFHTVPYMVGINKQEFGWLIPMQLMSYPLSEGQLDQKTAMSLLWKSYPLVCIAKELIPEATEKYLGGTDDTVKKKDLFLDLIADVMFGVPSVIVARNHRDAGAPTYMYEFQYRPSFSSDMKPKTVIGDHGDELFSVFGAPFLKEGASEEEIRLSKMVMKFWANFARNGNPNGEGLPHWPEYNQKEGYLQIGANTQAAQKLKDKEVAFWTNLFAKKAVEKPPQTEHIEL

[2] = target: T1, Liver carboxylesterase 1; experiment: Prodrug conversion assessed as CES1 (unknown origin) mediated aztreonam release in 2.5% acetonitrile in 0.05M citrate buffer at 0.5 mg/ml at pH 4.7 at 37degC after 5 mins in presence of 150 units/ml of CES1 enzyme by HPLC analysis; type: ADME; conditions: pH 4.7, 5 min
[3] = target: T1, Liver carboxylesterase 1; experiment: Prodrug conversion assessed as CES1 (unknown origin) mediated aztreonam release in 2.5% acetonitrile in 0.05M citrate buffer at 0.5 mg/ml at pH 4.7 at 37degC after 30 mins in presence of 150 units/ml of CES1 enzyme by HPLC analysis; type: ADME; conditions: pH 4.7, 0.5 h
[4] = target: T1, Liver carboxylesterase 1; experiment: Prodrug conversion assessed as CES1 (unknown origin) mediated aztreonam release in 2.5% acetonitrile in 0.05M citrate buffer at 0.5 mg/ml at pH 4.7 at 37degC after 20 mins in presence of 150 units/ml of CES1 enzyme by HPLC analysis; type: ADME; conditions: pH 4.7, 20 min
[5] = target: T1, Liver carboxylesterase 1; experiment: Prodrug conversion assessed as CES1 (unknown origin) mediated aztreonam release in 2.5% acetonitrile in 0.05M citrate buffer at 0.5 mg/ml at pH 4.7 at 37degC measured immediately in presence of 150 units/ml of CES1 enzyme by HPLC analysis; type: ADME; conditions: BLD = below limit of detection
[6] = target: T1, Liver carboxylesterase 1; experiment: Prodrug conversion assessed as CES1 (unknown origin) mediated aztreonam release in 2.5% acetonitrile in 0.05M citrate buffer at 0.5 mg/ml at pH 4.7 at 37degC after 10 mins in presence of 150 units/ml of CES1 enzyme by HPLC analysis; type: ADME; conditions: pH 4.7, 10 min
[7] = Stability of the compound in 2.5% acetonitrile in 0.05M citrate buffer assessed as aztreonam and beta-lactam ring-opened prodrug intermediate release at 0.5 mg/ml at pH 4.7 at 37degC by HPLC analysis; type: physicochemical
[8] = target: T1, Liver carboxylesterase 1; experiment: Prodrug conversion assessed as CES1 (unknown origin) mediated aztreonam and beta-lactam ring-opened prodrug intermediate release in 2.5% acetonitrile in 0.05M citrate buffer at 0.5 mg/ml at pH 4.7 at 37degC in presence of CES1 at lower concentration by HPLC analysis; type: ADME
[9] = target: T1, Liver carboxylesterase 1; experiment: Prodrug conversion assessed as CES1 (unknown origin) mediated aztreonam release in 2.5% acetonitrile in 0.05M citrate buffer at 0.5 mg/ml at pH 4.7 at 37degC after 1 min in presence of 150 units/ml of CES1 enzyme by HPLC analysis; type: ADME; conditions: pH 4.7, 1 min, BLD = below limit of detection
[10] = Oral bioavailability in human at 500 mg administered twice as 250 mg tablet formulation measured 16 hrs post dose; type: ADME, organism-based; conditions: in vivo
[11] = Oral bioavailability in human at 500 mg administered as solution measured 16 hrs post dosing; type: ADME, organism-based; conditions: in vivo

Drug metabolism [1]	Drug metabolism [2]	Drug metabolism [3]	Drug metabolism [4]	Drug metabolism [5]	Drug metabolism [6]	Stability [7]	Drug metabolism [8]	Drug metabolism [9]	SMILES	bioavailability [10]	bioavailability [11]
45%	76%	90%	90%	Bld	86%	Unstable	Metabolite_Detected	–	CCOC(=O)CCC(C)(C)COS(=O)(=O)N1C(=O)[C@@H](NC(=O)/C(=N\OC(C)(C)C(=O)O)c2csc(N)n2)[C@@H]1C.O=C(O)C(F)(F)F	–	–
> 95%	> 95%	> 95%	> 95%	Bld	> 95%	Unstable	Metabolite_Detected	–	C[C@H]1[C@H](NC(=O)/C(=N\OC(C)(C)C(=O)O)c2csc(N)n2)C(=O)N1S(=O)(=O)OCC(C)(C)CCOC(=O)C(C)(C)C.O=C(O)C(F)(F)F	–	–
4%	8%	28%	23%	Bld	14%	Unstable	Metabolite_Detected	Bld	CCOC(=O)C(C)(C)COS(=O)(=O)N1C(=O)[C@@H](NC(=O)/C(=N\OC(C)(C)C(=O)O)c2csc(N)n2)[C@@H]1C.O=C(O)C(F)(F)F	–	–
–	–	–	–	–	–	–	–	–	C[C@H]1[C@H](NC(=O)/C(=N\OC(C)(C)C(=O)O)c2csc(N)n2)C(=O)N1S(=O)(=O)O [AZTREONAM]	< 1%	< 1%
